Assay results taken from PubChem BioAssay (NCI).
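1) Cells in 96-well plates. 2) Compound, 48 h, 5 concentrations. 3) Linear interpolation between surrounding doses. 4) Unreached endpoint = highest concentration. GI50 = concentration required for 50% inhibition of growth. The concentration for full growth arrest is given as TGI.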

Experiments:
Experiment in all cases: growth of human tumour cells (NCI), 48 h
OVCAR-8 ovarian = tested on: OVCAR-8 ovarian
HCT-116 colon = tested on: HCT-116 colon
LOX IMVI melanoma = tested on: LOX IMVI melanoma
HOP-92 NSCLC = tested on: HOP-92 NSCLC
ACHN renal = tested on: ACHN renal
KM12 colon = tested on: KM12 colon
HOP-62 NSCLC = tested on: HOP-62 NSCLC
MDA-MB-231 breast = tested on: MDA-MB-231 breast
CAKI-1 renal = tested on: CAKI-1 renal
DLD-1 colon = tested on: DLD-1 colon
KM20L2 colon = tested on: KM20L2 colon

Row | SMILES | TGI (OVCAR-8 ovarian) [µM] | TGI (HCT-116 colon) [µM] | TGI (LOX IMVI melanoma) [µM] | TGI (HOP-92 NSCLC) [µM] | TGI (ACHN renal) [µM] | TGI (KM12 colon) [µM] | TGI (HOP-62 NSCLC) [µM] | TGI (MDA-MB-231 breast) [µM] | TGI (CAKI-1 renal) [µM] | TGI (DLD-1 colon) [µM] | TGI (KM20L2 colon) [µM] | GI50 (MDA-MB-231 breast) [µM]
1 | O=c1nc2c(c(-c3ccc(Br)cc3)[nH]1)COC/C2=C\c1ccc(Br)cc1 | > 50 | > 50 | > 50 | > 50 | > 50 | > 50 | > 50 | > 50 | > 50 | – | – | –
2 | O=c1[nH]c2nc3ccccc3nc2[nH]c1=O | > 100 | > 100 | > 100 | > 100 | > 100 | > 100 | > 100 | > 100 | > 100 | – | – | –
3 | N#C/C(=C/n1c(=S)[nH]c2ccc([N+](=O)[O-])cc21)C(N)=O | > 100 | > 100 | > 100 | > 100 | > 100 | > 100 | > 100 | > 100 | > 100 | – | – | –
4 | CCC(CO)Nc1nc(NCc2ccccc2)c2ncn(C(C)C)c2n1 (stereo not given) | 57.5 | > 90.2 | > 100 | 56.2 | > 100 | 36.3 | 33.9 | > 94.5 | > 82.5 | – | – | –
5 | C=C1N(C=O)C(C)(C)N(O)C1(C)C | > 100 | > 100 | > 100 | > 100 | > 100 | > 100 | > 100 | > 100 | > 100 | – | – | –
6 | COc1ccc(/C=c2\s/c(=C3/SC(=S)N(c4ccccc4)C3=O)n(-c3ccccc3)c2=O)cc1 | > 100 | > 100 | > 100 | > 100 | 28.8 | > 100 | 69.9 | > 100 | > 100 | – | – | –
7 | NCCCCNCCCNC(=O)c1nc(-c2nc(CCN)sc2Cl)sc1Cl | > 100 | > 100 | – | > 100 | > 100 | > 100 | > 100 | – | > 100 | > 100 | > 100 | –
8 | COC(=O)C1(CCCCCBr)CCCCCCCCCCC1=O (stereo not given) | > 100 | > 100 | 63.3 | > 100 | > 100 | > 100 | > 100 | 84.6 | 53.9 | – | – | –
9 | COc1ccc(Nc2nc(N)c(C(=O)c3c[nH]c4ccccc34)s2)cc1 | > 100 | 6.58 | > 100 | 29.3 | > 100 | 26.1 | > 71.4 | > 100 | > 100 | – | – | –
10 | O=S(=O)(c1cc(Cl)ccc1Cl)n1ccnc1 | > 100 | > 100 | > 100 | > 100 | > 100 | > 100 | > 100 | 51.2 | > 100 | – | – | –
11 | CN(C)CCCNC(=O)c1cc(NC(=O)c2cc(NC(=O)CCCn3c4ccccc4c4ccccc43)cn2C)cn1C | > 66.2 | 13.8 | > 50.9 | 40.1 | > 65.9 | 43.9 | 30.9 | 20.9 | 43.5 | – | – | 4.45
